# Measurements taken from patent US11147790B2, “Treatment of cutaneous disorders” (Verrica Pharmaceuticals Inc., priority 2017, dated 2021).
# Where “and” joins values, the source holds several entries; their conditions need not be identical. Identical values can stand only once.
# Assay: Phase II clinical trial, systemic exposure evaluation (plasma concentration of cantharidin) after topical application to Molluscum contagiosum lesions
# Type: in vivo, human
# Protocol: This example describes pharmacokinetic results from a Phase II clinical trial for the treatment of skin lesion resulting from Molluscum contagiosum. Patients received administrations of the cantharidin composition in Table 9 to Molluscum contagiosum lesions every 21 days for a maximum of 4 sessions or until complete clearance. Blood samples for systemic exposure evaluation were collected on Day 1, prior to the drug application, and 2 (+30 minutes), 6 (+1 hour) and 24 (±3 hours) hours post-application. The average age of the subjects was 7±3.5 years. The average body weight of the subjects was 58±34.6 lb. The average number of lesions per subject was 43.7±24.2.
# The plasma concentration of cantharidin for all subjects was less than 3.3 ng/ml at all times sampled.
smiles,measurement,setting,value
C[C@@]12C(=O)OC(=O)[C@]1(C)[C@H]1CC[C@@H]2O1 [cantharidin],plasma concentration of cantharidin for all subjects at all times sampled,"all seventeen subjects, 2, 6 and 24 hours post-application, composition of Table 9, topical",less than 3.3 ng/ml
same,Exposure,"plasma cantharidin per individual subject, cantharidin composition of Table 9 applied topically to Molluscum contagiosum lesions, blood collected Day 1 at 2, 6 and 24 hours post-application, lower limit of quantification 2.5 ng/ml",<2.5 ng/ml (16×) and 3.3 ng/ml
same,plasma concentration of cantharidin below the lower limit of quantification,"subjects as young as 2 years old, having over 100 lesions, having genital lesions, with as many as 2.26 lesions per lb, LLOQ 2.5 ng/ml, only one of seventeen subjects above LLOQ",< 2.5 ng/mL
